Assay results: ChEMBL document CHEMBL5143569

Target: T1, Tyrosine-protein phosphatase non-receptor type 11 (Homo sapiens) (UniProt Q06124)
T1 sequence (whole entry): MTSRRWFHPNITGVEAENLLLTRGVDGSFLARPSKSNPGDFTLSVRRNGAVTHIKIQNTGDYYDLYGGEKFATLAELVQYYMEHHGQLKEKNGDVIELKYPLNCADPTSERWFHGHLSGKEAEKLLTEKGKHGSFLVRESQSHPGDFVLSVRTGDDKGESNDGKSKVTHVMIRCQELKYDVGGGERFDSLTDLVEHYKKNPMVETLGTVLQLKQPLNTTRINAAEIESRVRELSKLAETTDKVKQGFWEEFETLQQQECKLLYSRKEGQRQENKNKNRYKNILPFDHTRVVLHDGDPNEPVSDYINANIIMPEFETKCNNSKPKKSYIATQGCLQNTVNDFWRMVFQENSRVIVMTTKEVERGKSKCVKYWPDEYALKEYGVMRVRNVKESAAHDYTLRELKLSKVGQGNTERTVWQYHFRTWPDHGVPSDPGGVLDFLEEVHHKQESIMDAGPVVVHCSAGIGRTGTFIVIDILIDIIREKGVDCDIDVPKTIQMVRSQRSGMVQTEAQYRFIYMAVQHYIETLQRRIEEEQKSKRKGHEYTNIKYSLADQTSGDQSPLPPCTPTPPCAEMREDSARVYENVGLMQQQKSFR
Settings: filed as negative allosteric modulator
Description: Allosteric inhibition of recombinant human SHP2 assessed as change in melting temperature by SYPRO orange dye based thermal shift assay

| SMILES | ΔTm |
| --- | --- |
| CC1(N)CCN(c2cnc(Sc3ccccc3F)c(N)n2)CC1 | 2.88 °C |
| CC1(N)CCN(c2cnc(Sc3cccc4ccccc34)c(N)n2)CC1 | 3.6 °C |
| Cc1ccccc1Sc1ncc(N2CCC(C)(N)CC2)nc1N | 1.75 °C |
| CC1(N)CCN(c2cnc(Sc3ccc4ccccc4c3)c(N)n2)CC1 | 2.23 °C |
| CC1(N)CCN(c2cnc(Sc3ccccc3)c(N)n2)CC1 | 1.72 °C |
| CC1(N)CCN(c2cnc(SC3CCCCC3)c(N)n2)CC1 | 0.88 °C |
| CC1(N)CCN(c2cnc(Sc3ccc(Cl)cc3)c(N)n2)CC1 | 0.43 °C |
| COc1ccccc1Sc1ncc(N2CCC(C)(N)CC2)nc1N | 3.79 °C |
| CC1(N)CCN(c2cnc(Sc3cccc(Cl)c3)c(N)n2)CC1 | 1.7 °C |
| CC1(N)CCN(c2cnc(SCc3ccccc3)c(N)n2)CC1 | 0.38 °C |
| CC1(N)CCN(c2cnc(Sc3ccccc3Br)c(N)n2)CC1 | 4.47 °C |
| CC1(N)CCN(c2cnc(SCc3ccccc3Cl)c(N)n2)CC1 | 0.44 °C |
| Cc1ccc(-c2ncc(N3CCC(C)(N)CC3)nc2N)cc1 | 0.42 °C |
| CC1(N)CCN(c2cnc(-c3ccc(C#N)cc3)c(N)n2)CC1 | 0.275 °C |
| CC1(N)CCN(c2cnc(Sc3ccccc3C(F)(F)F)c(N)n2)CC1 | 3.45 °C |

Results, then the compound that gave them:

| ΔTm | SMILES |
| --- | --- |
| 0.52 °C | CC1(N)CCN(c2cnc(-c3cccc(F)c3F)c(N)n2)CC1 |
| 1.06 °C | CN(CCN)c1cnc(-c2cccc(Cl)c2Cl)c(N)n1 |
| 4.93 °C | NCC1CCN(c2cnc(Sc3cccc(Cl)c3Cl)c(N)n2)CC1 |
| 3.2 °C | CN1CCN(c2cnc(-c3cccc(Cl)c3Cl)c(N)n2)CC1 |
| 3.01 °C | Nc1nc(N2CCNCC2)cnc1-c1cccc(Cl)c1Cl |
| 1.72 °C | Nc1nc(N2CCC(N)CC2)cnc1-c1cccc(Cl)c1Cl |
| 6.24 °C | CC1(N)CCN(c2cnc(Sc3cccc(Cl)c3Cl)c(N)n2)CC1 |
| 0.435 °C | CC1(O)CCN(c2cnc(-c3cccc(Cl)c3Cl)c(N)n2)CC1 |
| 1.92 °C | Nc1nc(N2CC[C@H](N)C2)cnc1-c1cccc(Cl)c1Cl |
| 3.67 °C | NCC1CCN(c2cnc(-c3cccc(Cl)c3Cl)c(N)n2)CC1 |
| 4.37 °C | CC1(N)CCN(c2cnc(-c3cccc(Cl)c3Cl)c(N)n2)CC1 |
| 4.13 °C | CC1(N)CCN(c2cnc(Sc3ccccc3Cl)c(N)n2)CC1 |
| 3.06 °C | CNC1CCN(c2cnc(-c3cccc(Cl)c3Cl)c(N)n2)CC1 |
| 0.36 °C | Nc1nc(N2CCC(O)CC2)cnc1-c1cccc(Cl)c1Cl |
| 7.01 °C | CC1(CN)CCN(c2cnc(Sc3cccc(Cl)c3Cl)c(N)n2)CC1 |
| 2.31 °C | NCCC1CCN(c2cnc(-c3cccc(Cl)c3Cl)c(N)n2)CC1 |
